{
  "source": "patent US10231995B2",
  "about": "“Selenium-containing compositions and uses thereof” (SELO MEDICAL GMBH, priority 2001, dated 2019)",
  "origin": "cited, not measured here",
  "note": "Read-outs that look alike come from different tables or passages of the source.",
  "data": [
    {"smiles": "O=[Se](O)O", "note": "[selenite]", "values": [
      {"measurement": "Eo standard redox potential", "setting": "acidic medium", "result": "−0.740 (acidic medium) Volt"},
      {"measurement": "Eo standard redox potential", "setting": "basic medium", "result": "+0.366 (basic medium) Volt"}
    ]}
  ]
}
